Experimental data as given in ChEMBL document CHEMBL5104111, “Boron-Containing heterocycles as promising pharmacological agents” (Bioorg Med Chem, 2022).
≈ marks a conversion by molar mass, not a printed value.

Assays:
Escherichia coli [1] = assay: Antibacterial activity against Escherichia coli assessed as bacterial growth inhibition; format: functional
Klebsiella pneumoniae [2] = assay: Antibacterial activity against Klebsiella pneumoniae assessed as bacterial growth inhibition; format: functional
[3] = test system: Mycobacterium tuberculosis; assay: Antibacterial activity against Mycobacterium tuberculosis H37Rv ATCC 27294 assessed as bacterial growth inhibition by radiometry method; format: functional
Salmonella typhimurium = assay: Antibacterial activity against Salmonella typhimurium Delta-119 assessed as bacterial growth inhibition incubated for 16 hrs by broth dilution method; format: functional, Salmonella enterica subsp. enterica serovar Typhimurium; conditions: Salmonella enterica
Klebsiella pneumoniae [4] = assay: Antibacterial activity against Klebsiella pneumoniae Delta-217 assessed as bacterial growth inhibition incubated for 16 hrs by broth dilution method; format: functional
Proteus mirabilis = assay: Antibacterial activity against Proteus mirabilis Delta-89 assessed as bacterial growth inhibition incubated for 16 hrs by broth dilution method; format: functional
L5178Y = assay: Anticancer activity against mouse L5178Y cells assessed as cell growth inhibition incubated for 24 hrs by MTT assay; format: functional, cell-based
Streptococcus mutans = assay: Antibacterial activity against Streptococcus mutans assessed as bacterial growth inhibition; format: functional
[5] = Inhibition of Escherichia coli LeuRS using Escherichia coli tRNA as substrate incubated for 20 mins in presence of 14C-leucine/ATP
Escherichia coli [6] = assay: Antibacterial activity against Escherichia coli ATCC 25922 assessed as bacterial growth inhibition; format: functional
[7] = Binding affinity to Cryptococcus neoformans beta-carbonic anhydrase assessed as inhibition constant preincubated for 15 mins by bromothymol blue staining based assay
[8] = Binding affinity to Candida glabrata beta-carbonic anhydrase assessed as inhibition constant preincubated for 15 mins by bromothymol blue staining based assay; set-up: species or system Nakaseomyces glabratus
[9] = Cytotoxicity against HEK293T cells assessed as reduction in cell viability incubated for 48 hrs by MTT assay; format: toxicity, cell-based, HEK-293T; conditions: human
[10] = test system: Mycobacterium tuberculosis; assay: Antibacterial activity against Mycobacterium tuberculosis assessed as bacterial growth inhibition; format: functional
[11] = biological target: cAMP and cAMP-inhibited cGMP 3',5'-cyclic phosphodiesterase 10A (Homo sapiens, UniProt Q9Y233); assay: Inhibition of PDE10A (unknown origin)
Chain of cAMP and cAMP-inhibited cGMP 3',5'-cyclic phosphodiesterase 10A (Q9Y233 whole entry): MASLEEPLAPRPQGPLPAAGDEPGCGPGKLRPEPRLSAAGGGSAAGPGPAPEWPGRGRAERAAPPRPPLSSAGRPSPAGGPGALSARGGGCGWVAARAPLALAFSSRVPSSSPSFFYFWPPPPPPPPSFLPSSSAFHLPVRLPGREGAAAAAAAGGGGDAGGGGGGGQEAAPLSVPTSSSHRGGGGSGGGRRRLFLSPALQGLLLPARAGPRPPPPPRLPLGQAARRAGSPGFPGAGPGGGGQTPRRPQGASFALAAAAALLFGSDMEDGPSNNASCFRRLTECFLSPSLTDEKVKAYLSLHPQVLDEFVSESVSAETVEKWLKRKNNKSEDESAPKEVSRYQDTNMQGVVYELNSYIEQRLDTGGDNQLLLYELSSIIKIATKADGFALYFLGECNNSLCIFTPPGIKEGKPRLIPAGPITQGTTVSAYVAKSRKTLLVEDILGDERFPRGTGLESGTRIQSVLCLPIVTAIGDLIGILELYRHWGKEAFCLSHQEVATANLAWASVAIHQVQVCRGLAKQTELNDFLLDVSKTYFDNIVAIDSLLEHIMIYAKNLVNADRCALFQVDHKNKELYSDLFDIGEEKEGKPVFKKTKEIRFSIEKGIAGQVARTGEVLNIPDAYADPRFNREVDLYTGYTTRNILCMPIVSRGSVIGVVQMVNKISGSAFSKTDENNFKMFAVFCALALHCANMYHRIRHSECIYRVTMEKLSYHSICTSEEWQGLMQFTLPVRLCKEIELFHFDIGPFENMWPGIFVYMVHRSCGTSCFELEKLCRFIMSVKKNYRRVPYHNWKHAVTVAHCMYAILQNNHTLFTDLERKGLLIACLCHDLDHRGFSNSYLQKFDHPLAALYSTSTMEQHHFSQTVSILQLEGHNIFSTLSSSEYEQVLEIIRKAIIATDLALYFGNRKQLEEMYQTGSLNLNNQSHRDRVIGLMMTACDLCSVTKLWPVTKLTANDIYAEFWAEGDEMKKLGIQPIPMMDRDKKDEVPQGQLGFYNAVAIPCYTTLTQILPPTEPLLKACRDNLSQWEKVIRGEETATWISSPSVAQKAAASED

Staphylococcus aureus [12] = assay: Antibacterial activity against healthcare-associated Methicillin-resistant Staphylococcus aureus assessed as bacterial growth inhibition; format: functional
[13] = Lipophilicity, log P of the compound; format: physicochemical; conditions: octanol/water
Staphylococcus aureus [14] = assay: Antibacterial activity against Staphylococcus aureus ATCC 43300 assessed as bacterial growth inhibition incubated for 1 hr by plate colony counting method; format: functional
HepG2 = assay: Cytotoxicity against human HepG2 cells assessed as cell growth inhibition incubated for 72 hrs by Cell Titer Glo assay; format: functional, cell-based; conditions: HepG2, 72 h
[15] = test system: Mycobacterium tuberculosis; assay: Antibacterial activity against Mycobacterium tuberculosis H37Rv ATCC 25618 assessed as bacterial growth inhibition incubated for 5 days by fluorescence based assay; format: functional, organism-based; conditions: H37Rv ATCC 25618, 120 h
Aspergillus niger [16] = assay: Antifungal activity against Aspergillus niger assessed as fungal growth inhibition at 50 ug incubated for 96 hrs by disk diffusion method; format: functional; conditions: read-out: IZ
Verticillium dahliae = assay: Antifungal activity against Verticillium dahliae assessed as fungal growth inhibition at 50 ug incubated for 96 hrs by disk diffusion method; format: functional; conditions: read-out: IZ
Pseudomonas aeruginosa = assay: Antibacterial activity against Pseudomonas aeruginosa assessed as bacterial growth inhibition by broth microdilution method; format: functional
Prototheca zopfii = assay: Antimicrobial activity against Prototheca zopfii assessed as microbial growth inhibition by CLSI protocol based assay; format: functional
Caco-2 = assay: Anticancer activity against human Caco-2 cells assessed as cell growth inhibition by cytometry; format: functional, cell-based
[17] = Anticancer activity against human 1321N1 cells assessed as cell growth inhibition by dynamic assay; format: functional, cell-based
Saccharomyces cerevisiae = assay: Antifungal activity against Saccharomyces cerevisiae assessed as fungal growth inhibition at 100 ug; format: functional; conditions: read-out: IZ
Candida albicans = assay: Antifungal activity against Candida albicans assessed as fungal growth inhibition at 25 ug incubated for 48 hrs by disk diffusion method; format: functional; conditions: read-out: IZ
Aspergillus niger [18] = assay: Antifungal activity against Aspergillus niger assessed as fungal growth inhibition at 25 ug incubated for 48 hrs by disk diffusion method; format: functional; conditions: read-out: IZ
THP-1 = assay: Antiinflammatory activity against human THP-1 cells assessed as inhibition of LPS-stimulated IL-1beta release measured after 1 hr by ELISA; format: functional, cell-based; conditions: THP-1, 1 h

Question: For Cc1ccc(S(=O)(=O)N2N=Cc3ccccc3B2O)cc1, which MIC (Escherichia coli [1]) is on record?
Answer: 25 mg/L (≈ 83.3 µM)

Question: What about the MIC (Klebsiella pneumoniae [2]) of the same molecule?
Answer: 3.1 mg/L (≈ 10.3 µM)

Question: For O=C1Nc2ccccc2B(O)N1c1ccccc1, which MIC [3] is on record?
Answer: 8 mg/L (≈ 33.6 µM)

Question: For CCCS(=O)(=O)N1N=Cc2sc(C)cc2B1O, which MIC (Salmonella typhimurium) is on record?
Answer: 0.19 mg/L (≈ 0.698 µM)

Question: What about the MIC (Klebsiella pneumoniae [4]) of the same molecule?
Answer: 0.31 mg/L (≈ 1.14 µM)

Question: Which results are given for Cc1ccc2c(c1)C=NN(S(=O)(=O)c1ccc(N)cc1Cl)B2O?
Answer: MIC (Klebsiella pneumoniae [4]): 0.39 mg/L (≈ 1.12 µM); MIC (Proteus mirabilis): 0.78 mg/L (≈ 2.23 µM)

Question: For O=C1C[NH2+][B-](c2ccccc2)(c2ccccc2)O1, which IC50 (L5178Y) is on record?
Answer: 22.5 µM

Question: Which MIC (Streptococcus mutans) does the source give for CC1NB(c2ccccc2)OC1c1ccccc1 (stereo unspecified) here?
Answer: 1300 µM (≈ 308 µg/mL)

Question: Which MIC (Streptococcus mutans) does the source give for CCCCB1OC(c2ccccc2)C(C)N1C (stereo unspecified) here?
Answer: 500 µM (≈ 116 µg/mL)

Question: Which IC50 [5] does the source give for Cl.NC[C@H]1OB(O)c2c(OCCCO)cccc21 here?
Answer: 0.31 µM

Question: And the MIC (Escherichia coli [6])?
Answer: 1 mg/L

Question: What does the source list for O=C(Nc1ccc(F)cc1)Nc1ccc2c(c1)B(O)OC2?
Answer: Ki [7]: 0.078 µM; Ki [8]: 0.075 µM

Question: For OB1c2sccc2C=NN1Cc1ccccc1, which CC50 at 48 h [9] is on record?
Answer: > 100 µM

Question: For Cc1ccc2c(c1-c1ccccc1C(N)=O)B(O)OC2, which IC90 [10] is on record?
Answer: 1.8 µM

Question: Which IC50 [11] does the source give for CN(C(=O)c1nc(-c2cccnc2)cs1)c1ccc(OCB2C=Cc3ccccc3N2)cc1 here?
Answer: 0.33 µM

Question: Which MIC (Staphylococcus aureus [12]) does the source give for OCc1ccc2c(c1)C=CB(c1ccc(O)c(C34CC5CC(CC(C5)C3)C4)c1)N2 here?
Answer: 64 µM (≈ 24.7 µg/mL)

Question: What about the logP [13] of the same molecule?
Answer: 0.12

Question: Which IC90 [10] does the source give for N#Cc1ccccc1-c1cccc2c1B(O)OC2 here?
Answer: 30 µM

Question: For CN1C(=O)C2(Cc3ccccc3B(O)O2)c2ccccc21 (stereo unspecified), which logP [13] is on record?
Answer: 3.52

Question: For Cc1cccc(N2B(c3cccc([N+](=O)[O-])c3)ON=C2c2ccccc2)c1, which MIC (Staphylococcus aureus [14]) is on record?
Answer: 0.06 µM (≈ 0.0214 µg/mL)

Question: With CS(=O)(=O)N1N=Cc2ccc(Oc3ccc(C(F)(F)F)cc3/C=N/O)cc2B1O as the molecule, how does the IC50 (HepG2) read?
Answer: > 100 µM

Question: And the IC50 [15]?
Answer: 0.11 µM

Question: Which results are given for COc1ccc2c(c1)C=NN(C(N)=S)B2O?
Answer: zone of inhibition at 50 µg/disc (Aspergillus niger [16]): 2.3 mm; zone of inhibition at 50 µg/disc (Verticillium dahliae): 6.4 mm

Question: For Clc1ccc(-c2noc3c2COB(c2cccc(Br)c2)OC3)cc1, which MIC (Pseudomonas aeruginosa) is on record?
Answer: 25 mg/L (≈ 61.8 µM)

Question: For COc1ccc([N+]2=C(c3ccccc3)C=C(C(Cl)(Cl)Cl)O[B-]2(F)F)cc1, which MIC (Prototheca zopfii) is on record?
Answer: 0.3 mg/L (≈ 0.717 µM)

Question: For Cc1ccc(S(=O)(=O)N2N=Cc3cc(C)oc3B2O)cc1, which MIC (Salmonella typhimurium) is on record?
Answer: 3.12 mg/L (≈ 10.3 µM)

Question: And the MIC (Klebsiella pneumoniae [4])?
Answer: 1.56 mg/L (≈ 5.13 µM)

Question: What does the source list for CC(C)C1=[N+](Cc2cccc(C(F)(F)F)c2)[B-](c2ccccc2)(c2ccccc2)OC1=O?
Answer: IC50 (Caco-2): 76 µM; IC50 [17]: 268 µM

Question: Which zone of inhibition at 100 µg/disc (Saccharomyces cerevisiae) does the source give for CCNC(=S)N1N=Cc2ccccc2B1O here?
Answer: 4.3 mm

Question: For C=CCNC(=S)N1N=Cc2ccccc2B1O, which zone of inhibition at 25 µg/disc (Candida albicans) is on record?
Answer: 9 mm

Question: And the zone of inhibition at 25 µg/disc (Aspergillus niger [18])?
Answer: 7 mm

Question: For CC(=O)C1=C(C(Cl)(Cl)Cl)N[B-](c2ccccc2)(c2ccccc2)[O+]=C1C, which IC50 (THP-1) is on record?
Answer: 0.574 µM
